# Measured values reported in patent US9144238B2, “Active compound combinations” (BAYER INTELLECTUAL PROPERTY GMBH, priority 2011, dated 2015).
# Several values for one entry are separate records, joined by “and”; a condition that tells them apart may be missing. Identical values can stand only once.
# Assays:
# Phytophthora infestans = assay: whole plant or invertebrate; assay type: in vivo; conditions: tomatoes; for pest or weed control at 1 ppm / pest or weed control at 2 ppm: read-out: Efficacy in % found, Table 4; for pest or weed control at 2 ppm: 2 ppm a.i.; for pest or weed control at 10 ppm: read-out: Efficacy in % found, Table 1
# Alternaria solani = assay: whole plant or invertebrate; assay type: in vivo; conditions: for Efficacy in % found: in vivo
# Venturia inaequalis = assay: Venturia test (apples)/preventive; assay type: in vivo; conditions: for pest or weed control at 4 ppm: Table 10, 4 ppm a.i.
# Procedure: (§1) To produce a suitable preparation of active compound, 1 part by weight of active compound is mixed with the stated amounts of solvent and emulsifier, and the concentrate is diluted with water to the desired concentration.
# To test for preventive activity, young plants are sprayed with the preparation of active compound at the stated rate of application. After the spray coating has dried on, the plants are inoculated with an aqueous conidia suspension of the causal agent of apple scab (Venturia inaequalis) and then remain for 1 day in an incubation cabinet at approximately 20° C. and a relative atmospheric humidity of 100%.
# The plants are then placed in a greenhouse at approximately 21° C. and a relative atmospheric humidity of approximately 90%.
# (§2) The test is evaluated 10 days after the inoculation. 0% means an efficacy which corresponds to that of the untreated control, while an efficacy of 100% means that no disease is observed.
# Botrytis cinerea = assay: Botrytis test (beans)/preventive; assay type: in vivo; conditions: Table 12, 5 ppm a.i.
# Procedure: as §1
# To test for preventive activity, young plants are sprayed with the preparation of active compound. After the spray coating has dried on, 2 small pieces of agar covered with growth of Botrytis cinerea are placed on each leaf. The inoculated plants are placed in a darkened chamber at 20° C. and a relative atmospheric humidity of 100%.
# 2 days after the inoculation, the size of the lesions on the leaves is evaluated. 0% means an efficacy which corresponds to that of the untreated control, while an efficacy of 100% means that no disease is observed.
# as §2
# [1] = Venturia inaequalis, 240 h, read-out: Efficacy in % found
# [2] = Alternaria solani, 72 h, read-out: Efficacy in % found
# [3] = Phytophthora infestans, 72 h, 1 ppm a.i.
# [4] = Phytophthora infestans, 72 h, 10 ppm a.i.
# Procedure for physchem: Measurement of log P values was performed according EEC directive 79/831 Annex V.A8 by HPLC (High Performance Liquid
# Chromatography) on reversed phase columns with the following methods:
# ^[a]Measurement was done at pH 2.3 with 0.1% phosphoric acid and acetonitrile as eluent.
compound,measurement,setting,value
"C[C@@]1(c2ccc(Oc3ccccc3)cc2)OC(=O)N(Nc2ccccc2)C1=O (racemic) [3.9, famoxadone]",pest or weed control at 2.5 ppm,"Phytophthora infestans; Phytophthora infestans, 72 h, read-out: Efficacy in % found, Table 5, 2.5 ppm a.i.",30%
"O=C(Cn1nc(C(F)F)cc1C(F)F)N1CCC(c2nc(C3=NOC(c4c(F)ccc(O)c4F)C3)cs2)CC1 (centres unmarked) [2-[3,5-bis(difluoromethyl)-1H-pyrazol-1-yl]-1-(4-{4-[5-(2,6-difluoro-3-hydroxyphenyl)-4,5-dihydro-1,2-oxazol-3-yl]-1,3-thiazol-2-yl}piperidin-1-yl)ethanone]",chromatographic logP,physchem; pH 2.7,2.61
"O=C(Cn1nc(C(F)F)cc1C(F)F)N1CCC(c2nc(C3=NOC(c4c(F)cc(O)cc4F)C3)cs2)CC1 (centres unmarked) [2-[3,5-bis(difluoromethyl)-1H-pyrazol-1-yl]-1-(4-{4-[5-(2,6-difluoro-4-hydroxyphenyl)-4,5-dihydro-1,2-oxazol-3-yl]-1,3-thiazol-2-yl}piperidin-1-yl)ethanone]",chromatographic logP,physchem; pH 2.7,2.58
"Cn1cc(C(=O)Nc2ccc(F)cc2-c2ccc(Cl)c(Cl)c2)c(C(F)F)n1 [2.1, bixafen]",Efficacy in % found,Alternaria solani,60%
same,Efficacy in % found,"Venturia inaequalis; Table 10, 0.5 ppm a.i.",26%
"O=C(NCCc1ncc(C(F)(F)F)cc1Cl)c1ccccc1C(F)(F)F [2.6, fluopyram]",pest or weed control at 4 ppm,Venturia inaequalis; [1],33%
"Cn1cc(C(=O)Nc2ccccc2-c2cc(F)c(F)c(F)c2)c(C(F)F)n1 [2.8, fluxapyroxad]",Efficacy in % found,Alternaria solani,63%
same,Efficacy in % found,"Venturia inaequalis; Table 10, 0.5 ppm a.i.",54%
"CC(C)C1C2CCC1c1c(NC(=O)c3cn(C)nc3C(F)F)cccc12 (centres unmarked) [2.12, isopyrazam]",Efficacy in % found,Alternaria solani,60%
same,Efficacy in % found,"Venturia inaequalis; Table 10, 0.5 ppm a.i.",76%
"COC(c1ccc(Cl)cc1Cl)C(C)NC(=O)c1cn(C)nc1C(F)F (centres unmarked) [2.27, N-[1-(2,4-dichlorophenyl)-1-methoxypropan-2-yl]-3-(difluoromethyl)-1-methyl-1H-pyrazole-4-carboxamide]",pest or weed control at 4 ppm,Venturia inaequalis; [1],87%
"Cn1cc(C(=O)Nc2cccc3c2C2CCC3C2=C(Cl)Cl)c(C(F)F)n1 (centres unmarked) [2.29, N-[9-(dichloromethylene)-1,2,3,4-tetrahydro-1,4-methanonaphthalen-5-yl]-3-(difluoromethyl)-1-methyl-1H-pyrazole-4-carboxamide]",pest or weed control at 0.25 ppm,Alternaria solani; [2],40%
"CCCCCCCCc1c(CC)nc2ncnn2c1N [3.1, ametoctradin]",Efficacy in % found,"Phytophthora infestans; Table 1, 10 ppm a.i.",0%
same,Efficacy in % found,"Phytophthora infestans; Table 5, 2.5 ppm a.i.",52%
"CO/C=C(/C(=O)OC)c1ccccc1Oc1cc(Oc2ccccc2C#N)ncn1 [3.3, azoxystrobin]",Efficacy in % found,"Phytophthora infestans; Table 4, 1 ppm a.i.",0%
same,Efficacy in % found,Alternaria solani,9%
"Cc1ccc(-c2c(Cl)nc(C#N)n2S(=O)(=O)N(C)C)cc1 [3.4, cyazofamid]",pest or weed control at 0.1 ppm,"Phytophthora infestans; Phytophthora infestans, 72 h, read-out: Efficacy in % found, Table 5, 0.1 ppm a.i.",0%
"CSC1=N[C@@](C)(c2ccccc2)C(=O)N1Nc1ccccc1 [3.10, fenamidone]",pest or weed control at 0.25 ppm,"Phytophthora infestans; Phytophthora infestans, 72 h, read-out: Efficacy in % found, Table 2, 0.25 ppm a.i.",6%
"CO/N=C(/C1=NOCCO1)c1ccccc1Oc1ncnc(Oc2ccccc2Cl)c1F [3.12, fluoxastrobin]",pest or weed control at 1 ppm,Phytophthora infestans; [3],0%
same,pest or weed control at 2 ppm,"Phytophthora infestans; Phytophthora infestans, 72 h",0%
same,pest or weed control at 0.5 ppm,Alternaria solani; [2],18%
"COC(=O)N(OC)c1ccccc1COc1ccn(-c2ccc(Cl)cc2)n1 [3.17, pyraclostrobin]",pest or weed control at 1 ppm,Phytophthora infestans; [3],0%
same,pest or weed control at 2 ppm,"Phytophthora infestans; Phytophthora infestans, 72 h",0%
same,pest or weed control at 0.25 ppm,Alternaria solani; [2],18%
"CON=C(C(=O)OC)c1ccccc1CON=C(C)c1cccc(C(F)(F)F)c1 [3.22, trifloxystrobin]",pest or weed control at 1 ppm,Phytophthora infestans; [3],0%
same,pest or weed control at 2 ppm,"Phytophthora infestans; Phytophthora infestans, 72 h",0%
same,pest or weed control at 0.25 ppm,Alternaria solani; [2],18%
same,pest or weed control at 0.25 ppm,"Venturia inaequalis; Venturia inaequalis, 240 h, Table 11, 0.25 ppm a.i., read-out: Efficacy in % found",0%
"Oc1cc(F)c(C2CC(c3csc(C4CCNCC4)n3)=NO2)c(F)c1 (centres unmarked) [4-{4-[5-(2,6-difluoro-4-hydroxyphenyl)-4,5-dihydro-1,2-oxazol-3-yl]-1,3-thiazol-2-yl}piperidinium chloride]",chromatographic logP,physchem; pH 2.7,0.98
"O=C(NCc1ncc(C(F)(F)F)cc1Cl)c1c(Cl)cccc1Cl [4.6, fluopicolide]",Efficacy in % found,"Phytophthora infestans; Table 5, 0.5 ppm a.i.",12%
"N#Cc1c(Cl)c(Cl)c(Cl)c(C#N)c1Cl [5.4, chlorothalonil]",Efficacy in % found,Botrytis cinerea,8%
"[Cu+2].[OH-].[OH-] [5.5, copper hydroxide]",Efficacy in % found,Alternaria solani,16%
"[Cl-].[Cu+2].[Cu+2].[OH-].[OH-].[OH-] [5.8, copper oxychloride]",Efficacy in % found,"Phytophthora infestans; Table 2, 5 ppm a.i.",12%
same,Efficacy in % found,"Phytophthora infestans; Table 2, 10 ppm a.i.",10%
same,Efficacy in % found,Alternaria solani,7%
same,Efficacy in % found,"Venturia inaequalis; Table 11, 50 ppm a.i.",54%
"C#CCOc1ccc(CCNC(=O)C(OCC#C)c2ccc(Cl)cc2)cc1OC (centres unmarked) [9.5, mandipropamid]",Efficacy in % found,"Phytophthora infestans; Table 1, 0.2 ppm a.i.",0%
"O=[N+]([O-])c1cc(C(F)(F)F)c(Cl)c([N+](=O)[O-])c1Nc1ncc(C(F)(F)F)cc1Cl [14.4, fluazinam]",pest or weed control at 10 ppm,Phytophthora infestans; [4],0%
"CCNC(=O)NC(=O)/C(C#N)=N/OC [15.9, cymoxanil]",pest or weed control at 10 ppm,Phytophthora infestans; [4],0%
"OP(O)O [15.41, phosphorous acid]",Efficacy in % found,"Phytophthora infestans; Table 1, 10 ppm a.i.",0%
"Cn1c(=O)c2sc3c(=O)n(C)c(=O)c3sc2c1=O [15.60, 2,6-dimethyl-1H,5H-[1,4]dithiino[2,3-c:5,6-c′]dipyrrole-1,3,5,7(2H,6H)-tetrone]",pest or weed control at 5 ppm,"Phytophthora infestans; Phytophthora infestans, 72 h, read-out: Efficacy in % found, Table 2, 5 ppm a.i.",49%
same,pest or weed control at 25 ppm,Alternaria solani; [2],29%
same,pest or weed control at 25 ppm,"Venturia inaequalis; Venturia inaequalis, 240 h, Table 11, 25 ppm a.i., read-out: Efficacy in % found",54%
"C#CCOc1cccc(C2CC(c3csc(C4CCN(C(=O)Cn5nc(C(F)F)cc5C(F)F)CC4)n3)=NO2)c1 (centres unmarked) [(I-3), 2-[3,5-bis(difluoromethyl)-1H-pyrazol-1-yl]-1-[4-(4-{5-[3-(prop-2-yn-1-yloxy)phenyl]-4,5-dihydro-1,2-oxazol-3-yl}-1,3-thiazol-2-yl)piperidin-1-yl]ethanone]",chromatographic logP,physchem; pH 2.7,3.16
same,chromatographic logP,physchem; pH 7.8,3.24
"C#CCOc1cc(F)c(C2CC(c3csc(C4CCN(C(=O)Cn5nc(C(F)F)cc5C(F)F)CC4)n3)=NO2)c(F)c1 (centres unmarked) [(I-4), 2-[3,5-bis(difluoromethyl)-1H-pyrazol-1-yl]-1-[4-(4-{5-[2,6-difluoro-4-(prop-2-yn-1-yloxy)phenyl]-4,5-dihydro-1,2-oxazol-3-yl}-1,3-thiazol-2-yl)piperidin-1-yl]ethanone]",chromatographic logP,physchem; pH 2.7,3.3
"C#CCOc1ccc(F)c(C2CC(c3csc(C4CCN(C(=O)Cn5nc(C(F)F)cc5C(F)F)CC4)n3)=NO2)c1F (centres unmarked) [(I-7), 2-[3,5-bis(difluoromethyl)-1H-pyrazol-1-yl]-1-[4-(4-{5-[2,6-difluoro-3-(prop-2-yn-1-yloxy)phenyl]-4,5-dihydro-1,2-oxazol-3-yl}-1,3-thiazol-2-yl)piperidin-1-yl]ethanone]",chromatographic logP,physchem; pH 2.7,3.17
"C#CCOc1ccc(F)cc1C1CC(c2csc(C3CCN(C(=O)Cn4nc(C(F)F)cc4C(F)F)CC3)n2)=NO1 (centres unmarked) [(I-8), 2-[3,5-bis(difluoromethyl)-1H-pyrazol-1-yl]-1-[4-(4-{5-[5-fluoro-2-(prop-2-yn-1-yloxy)phenyl]-4,5-dihydro-1,2-oxazol-3-yl}-1,3-thiazol-2-yl)piperidin-1-yl]ethanone]",chromatographic logP,physchem; pH 2.7,3.37
same,chromatographic logP,physchem; pH 7.8,3.44
"C#CCOc1cc(OC)ccc1C1CC(c2csc(C3CCN(C(=O)Cn4nc(C(F)F)cc4C(F)F)CC3)n2)=NO1 (centres unmarked) [(I-9), 2-[3,5-bis(difluoromethyl)-1H-pyrazol-1-yl]-1-[4-(4-{5-[4-methoxy-2-(prop-2-yn-1-yloxy)phenyl]-4,5-dihydro-1,2-oxazol-3-yl}-1,3-thiazol-2-yl)piperidin-1-yl]ethanone]",chromatographic logP,physchem; pH 2.7,3.25
same,chromatographic logP,physchem; pH 7.8,3.2
"C#CCOc1c(F)cccc1C1CC(c2csc(C3CCN(C(=O)Cn4nc(C(F)F)cc4C(F)F)CC3)n2)=NO1 (centres unmarked) [(I-10), 2-[3,5-bis(difluoromethyl)-1H-pyrazol-1-yl]-1-[4-(4-{5-[3-fluoro-2-(prop-2-yn-1-yloxy)phenyl]-4,5-dihydro-1,2-oxazol-3-yl}-1,3-thiazol-2-yl)piperidin-1-yl]ethanone]",chromatographic logP,physchem; pH 2.7,3.37
same,chromatographic logP,physchem; pH 7.8,3.48
"CC(C)(C)OC(=O)N1CCC(c2nc(C3=NOC(c4c(F)cc(O)cc4F)C3)cs2)CC1 (centres unmarked) [tert-butyl 4-{4-[5-(2,6-difluoro-4-hydroxyphenyl)-4,5-dihydro-1,2-oxazol-3-yl]-1,3-thiazol-2-yl}piperidine-1-carboxylate]",chromatographic logP,physchem; pH 2.7,3.24
fosetyl-aluminium [15.24],Efficacy in % found,"Phytophthora infestans; Table 1, 10 ppm a.i.",0%
metiram [5.25],Efficacy in % found,"Phytophthora infestans; Table 2, 5 ppm a.i.",12%
same,Efficacy in % found,"Phytophthora infestans; Table 2, 10 ppm a.i.",24%
same,Efficacy in % found,Alternaria solani,36%
propamocarb hydrochloride [10.10],Efficacy in % found,"Phytophthora infestans; Table 2, 5 ppm a.i.",7%
same,Efficacy in % found,"Phytophthora infestans; Table 4, 10 ppm a.i.",18%
propineb [5.29],Efficacy in % found,"Phytophthora infestans; Table 3, 10 ppm a.i.",24%
same,Efficacy in % found,Alternaria solani,2% and 0%
